Source: patent US20260131016A1, “NOVEL AURISTATIN ANALOGS AND IMMUNOCONJUGATES THEREOF” (ADCENTRX THERAPEUTICS INC., priority 2021, published 2026)
Where two headings read alike, the source gives them in different places.

Key:
[1] = test system: HCC1954 breast ductal carcinoma; experiment: Cell viability (Cell Titer Glo 2.0) in HCC1954, 120 hours; type: cell-based; settings: for potency compared to the 1,4-NH2 configuration of the P5 moiety in 19 and 26: HCC1954 and T47D assays
Experimental: (§1) HCC1954 breast ductal carcinoma and T47D cells (ATCC, Manassas, VA, USA) were seeded into 384-well white-walled culture plates and allowed to adhere for 2-4 hours. Cells were then treated at least in duplicate by addition of 5-fold serially diluted test articles prepared at 2× final concentration and incubated at 37° C. for 120 hours. Cell viability following treatment was determined by Cell Titer Glo 2.0 Assay (Promega, Madison, WI, USA) and normalized to non-treated controls. Dose-response relationships were analyzed using GraphPad Prism (La Jolla, CA, USA), and IC50 values were derived from non-linear regression analyses using a 4-parameter logistic equation.

T47D cells = experiment: Cell viability (Cell Titer Glo 2.0) in T47D cells, 120 hours; type: cell-based
Experimental: as §1

[2] = Homo sapiens, HCC1954, 120 h, read-out: IC50 (nM), in vitro potency in HCC1954
[3] = N-methylated analogs 1,2-/1,3-/1,4-NH2, relative to the 1,3-NH2 analog (=1)
[4] = NCH3-amide compared to its NH-amide analog (=1)
[5] = Trastuzumab conjugate of the numbered linker-payload, HCC1954, read-out: ADC (Trastuzumab) IC50 in HCC1954 assay

CC[C@H](C)[C@@H]([C@@H](CC(=O)N1CCC[C@H]1[C@H](OC)[C@@H](C)C(=O)N(C)CCc1cccc(N)c1)OC)N(C)C(=O)[C@@H](NC(=O)[C@H](C(C)C)N(C)C)C(C)C [Compound 1, (S)-N-((3R,4S,5S)-1-((S)-2-((1R,2R)-3-((3-aminophenethyl)(methyl)amino)-1-methoxy-2-methyl-3-oxopropyl)pyrrolidin-1-yl)-3-methoxy-5-methyl-1-oxoheptan-4-yl)-2-((S)-2-(dimethylamino)-3-methylbutanamido)-N,3-dimethylbutanamide]
potency compared to the 1,4-NH2 configuration of the P5 moiety in 19 and 26 [1]: more potent | IC50 [1, 2]: < 5 nM | IC50 (fold difference) HCC1954 [1, 3]: 1 fold difference | IC50 (fold difference) HCC1954 [1, 4]: 1.5 fold difference | IC50 (fold difference) T47D (T47D cells; [3]): 1 fold difference | IC50 (fold difference) T47D (T47D cells; [4]): 1.6 fold difference

CC[C@H](C)[C@@H]([C@@H](CC(=O)N1CCC[C@H]1[C@H](OC)[C@@H](C)C(=O)N(C)CCc1cccc(N)c1)OC)N(C)C(=O)[C@@H](NC(=O)[C@H](C)N(C)C)C(C)C [Compound 2, (S)-N-((3R,4S,5S)-1-((S)-2-((1R,2R)-3-((3-aminophenethyl)(methyl)amino)-1-methoxy-2-methyl-3-oxopropyl)pyrrolidin-1-yl)-3-methoxy-5-methyl-1-oxoheptan-4-yl)-2-((S)-2-(dimethylamino)propanamido)-N,3-dimethylbutanamide]
potency compared to the 1,4-NH2 configuration of the P5 moiety in 19 and 26 [1]: more potent | IC50 [1, 2]: < 5 nM | IC50 (fold difference) HCC1954 [1, 3]: 1 fold difference | IC50 (fold difference) T47D (T47D cells; [3]): 1 fold difference

CC[C@H](C)[C@@H]([C@@H](CC(=O)N1CCC[C@H]1[C@H](OC)[C@@H](C)C(=O)N(C)CCc1ccccc1N)OC)N(C)C(=O)[C@@H](NC(=O)[C@H](C(C)C)N(C)C)C(C)C [Compound 14, (S)-N-((3R,4S,5S)-1-((S)-2-((1R,2R)-3-((2-aminophenethyl)(methyl)amino)-1-methoxy-2-methyl-3-oxopropyl)pyrrolidin-1-yl)-3-methoxy-5-methyl-1-oxoheptan-4-yl)-2-((S)-2-(dimethylamino)-3-methylbutanamido)-N,3-dimethylbutanamide]
potency compared to the 1,4-NH2 configuration of the P5 moiety in 19 and 26 [1]: more potent | IC50 [1, 2]: < 5 nM | IC50 (fold difference) HCC1954 [1, 3]: 0.8 fold difference | IC50 (fold difference) HCC1954 [1, 4]: 2.0 fold difference | IC50 (fold difference) T47D (T47D cells; [3]): 1.3 fold difference | IC50 (fold difference) T47D (T47D cells; [4]): 1.8 fold difference

CC[C@H](C)[C@@H]([C@@H](CC(=O)N1CCC[C@H]1[C@H](OC)[C@@H](C)C(=O)N(C)CCc1cccc(NC(=O)[C@H](C)NC(=O)[C@H](C)NC(=O)CN2C(=O)C=CC2=O)c1)OC)N(C)C(=O)[C@@H](NC(=O)[C@H](C(C)C)N(C)C)C(C)C [Compound 28, (S)-2-((S)-2-(dimethylamino)-3-methylbutanamido)-N-((3R,4S,5S)-1-((S)-2-((1R,2R)-3-((3-((S)-2-((S)-2-(2-(2,5-dioxo-2,5-dihydro-1H-pyrrol-1-yl)acetamido)propanamido)propanamido)phenethyl)(methyl)amino)-1-methoxy-2-methyl-3-oxopropyl)pyrrolidin-1-yl)-3-methoxy-5-methyl-1-oxoheptan-4-yl)-N,3-dimethylbutanamide 2,2,2-trifluoroacetate]
IC50 [1, 5]: < 5 nM

CC[C@H](C)[C@@H]([C@@H](CC(=O)N1CCC[C@H]1[C@H](OC)[C@@H](C)C(=O)N(C)CCc1cccc(NC(=O)[C@H](C)NC(=O)[C@H](C)NC(=O)CN2C(=O)C=CC2=O)c1)OC)N(C)C(=O)[C@@H](NC(=O)[C@H](C)N(C)C)C(C)C [Compound 29, (S)-2-((S)-2-(dimethylamino)propanamido)-N-((3R,4S,5S)-1-((S)-2-((1R,2R)-3-((3-((S)-2-((S)-2-(2-(2,5-dioxo-2,5-dihydro-1H-pyrrol-1-yl)acetamido)propanamido)propanamido)phenethyl)(methyl)amino)-1-methoxy-2-methyl-3-oxopropyl)pyrrolidin-1-yl)-3-methoxy-5-methyl-1-oxoheptan-4-yl)-N,3-dimethylbutanamide 2,2,2-trifluoroacetate]
IC50 [1, 5]: < 5 nM

CC[C@H](C)[C@@H]([C@@H](CC(=O)N1CCC[C@H]1[C@H](OC)[C@@H](C)C(=O)N(C)CCc1cccc(NC(=O)[C@H](C)NC(=O)[C@H](C)NC(=O)CN2C(=O)C=CC2=O)c1)OC)N(C)C(=O)[C@@H](NC(=O)[C@@H](C)N(C)C)C(C)C [Compound 30, (S)-2-((R)-2-(dimethylamino)propanamido)-N-((3R,4S,5S)-1-((S)-2-((1R,2R)-3-((3-((S)-2-((S)-2-(2-(2,5-dioxo-2,5-dihydro-1H-pyrrol-1-yl)acetamido)propanamido)propanamido)phenethyl)(methyl)amino)-1-methoxy-2-methyl-3-oxopropyl)pyrrolidin-1-yl)-3-methoxy-5-methyl-1-oxoheptan-4-yl)-N,3-dimethylbutanamide 2,2,2-trifluoroacetate]
IC50 [1, 5]: < 5 nM

CC[C@H](C)[C@@H]([C@@H](CC(=O)N1CCC[C@H]1[C@H](OC)[C@@H](C)C(=O)N(C)CCc1cccc(NC(=O)[C@H](C)NC(=O)[C@H](C)NC(=O)CN2C(=O)C=CC2=O)c1)OC)N(C)C(=O)[C@@H](NC(=O)CN(C)C)C(C)C [Compound 31, (S)-2-(2-(dimethylamino)acetamido)-N-((3R,4S,5S)-1-((S)-2-((IR,2R)-3-((3-((S)-2-((S)-2-(2-(2,5-dioxo-2,5-dihydro-1H-pyrrol-1-yl)acetamido)propanamido)propanamido)phenethyl)(methyl)amino)-1-methoxy-2-methyl-3-oxopropyl)pyrrolidin-1-yl)-3-methoxy-5-methyl-1-oxoheptan-4-yl)-N,3-dimethylbutanamide 2,2,2-trifluoroacetate]
IC50 [1, 5]: < 5 nM

CC[C@H](C)[C@@H]([C@@H](CC(=O)N1CCC[C@H]1[C@H](OC)[C@@H](C)C(=O)N(C)CCc1cccc(NC(=O)[C@H](C)NC(=O)[C@H](C)NC(=O)CN2C(=O)C=CC2=O)c1)OC)N(C)C(=O)[C@@H](NC(=O)C(C)(C)N(C)C)C(C)C [Compound 32, (S)-2-(2-(dimethylamino)-2-methylpropanamido)-N-((3R,4S,5S)-1-((S)-2-((1R,2R)-3-((3-((S)-2-((S)-2-(2-(2,5-dioxo-2,5-dihydro-1H-pyrrol-1-yl)acetamido)propanamido)propanamido)phenethyl)(methyl)amino)-1-methoxy-2-methyl-3-oxopropyl)pyrrolidin-1-yl)-3-methoxy-5-methyl-1-oxoheptan-4-yl)-N,3-dimethylbutanamide 2,2,2-trifluoroacetate]
IC50 [1, 5]: < 5 nM

CC[C@H](C)[C@@H]([C@@H](CC(=O)N1CCC[C@H]1[C@H](OC)[C@@H](C)C(=O)N(C)CCc1cccc(NC(=O)[C@H](C)NC(=O)[C@H](C)NC(=O)CN2C(=O)C=CC2=O)c1)OC)N(C)C(=O)[C@@H](NC(=O)C1(N(C)C)CCC1)C(C)C [Compound 33, 1-(dimethylamino)-N-((S)-1-(((3R,4S,5S)-1-((S)-2-((1R,2R)-3-((3-((S)-2-((S)-2-(2-(2,5-dioxo-2,5-dihydro-1H-pyrrol-1-yl)acetamido)propanamido)propanamido)phenethyl)(methyl)amino)-1-methoxy-2-methyl-3-oxopropyl)pyrrolidin-1-yl)-3-methoxy-5-methyl-1-oxoheptan-4-yl)(methyl)amino)-3-methyl-1-oxobutan-2-yl)cyclobutanecarboxamide 2,2,2-trifluoroacetate]
IC50 [1, 5]: > 10 nM

CC[C@H](C)[C@@H]([C@@H](CC(=O)N1CCC[C@H]1[C@H](OC)[C@@H](C)C(=O)N(C)CCc1cccc(NC(=O)[C@H](C)NC(=O)[C@H](C)NC(=O)CN2C(=O)C=CC2=O)c1)OC)N(C)C(=O)[C@@H](NC(=O)[C@H]1CCCN1C)C(C)C [Compound 37, (R)-N-((S)-1-(((3R,4S,5S)-1-((S)-2-((IR,2R)-3-((3-((S)-2-((S)-2-(2-(2,5-dioxo-2,5-dihydro-1H-pyrrol-1-yl)acetamido)propanamido)propanamido)phenethyl)(methyl)amino)-1-methoxy-2-methyl-3-oxopropyl)pyrrolidin-1-yl)-3-methoxy-5-methyl-1-oxoheptan-4-yl)(methyl)amino)-3-methyl-1-oxobutan-2-yl)-1-methylpyrrolidine-2-carboxamide 2,2,2-trifluoroacetate]
IC50 [1, 5]: < 5 nM

CC[C@H](C)[C@@H]([C@@H](CC(=O)N1CCC[C@H]1[C@H](OC)[C@@H](C)C(=O)N(C)CCc1cccc(NC(=O)[C@H](C)NC(=O)[C@H](C)NC(=O)CN2C(=O)C=CC2=O)c1)OC)N(C)C(=O)[C@@H](NC(=O)C(C)(C)CN(C)C)C(C)C [Compound 38, (S)-2-(3-(dimethylamino)-2,2-dimethylpropanamido)-N-((3R,4S,5S)-1-((S)-2-((1R,2R)-3-((3-((S)-2-((S)-2-(2-(2,5-dioxo-2,5-dihydro-1H-pyrrol-1-yl)acetamido)propanamido)propanamido)phenethyl)(methyl)amino)-1-methoxy-2-methyl-3-oxopropyl)pyrrolidin-1-yl)-3-methoxy-5-methyl-1-oxoheptan-4-yl)-N,3-dimethylbutanamide 2,2,2-trifluoroacetate]
IC50 [1, 5]: > 10 nM

CC[C@H](C)[C@@H]([C@@H](CC(=O)N1CCC[C@H]1[C@H](OC)[C@@H](C)C(=O)N[C@@H](Cc1ccccc1)c1nccs1)OC)N(C)C(=O)[C@@H](NC(=O)[C@H](C(C)C)N(C)C)C(C)C [Dolastatin 10, dolastatin 10, reference compound]
IC50[N—Me amide]/IC50[NH-amide] ([1]; HCC1954 5-Day Assay, N-methylation of the amide between P4 and P5): 240
